Test results as given in patent US8722052B2, “Vaccinia virus protein A46 peptide and use thereof” (priority 2008, dated 2014).

Tested on: JNK
Assay: LPS-induced phospho-JNK in RAW264.7 cells, immunoblot
Assay type: cell-based, murine
Settings: peptide 5 μM, 10 ng/ml LPS 5-60 min
Method: FIGS. 27A, B and C are immunoblots showing the effect of A464 on LPS-induced appearance of phospho-JNK in murine RAW264.7 cells. Cells were set up as for FIG. 25 above and 5 μM A467 (SEQ ID NO. 23) or A464 (SEQ ID NO. 20) were added to the wells 1 hour before stimulation. Cells were stimulated with 10 ng/ml LPS for a period of 5, 15, 30 or 60 min, then harvested and lysed. Proteins were resolved by SDS-PAGE, and transferred membranes immunoblotted for phospho-JNK (A), total JNK (B) or β-actin (C). The blots shown are representative of two experiments;
RAW264.7 cells were seeded at a density of 1×10^5 cells/ml in 6 well plates. […] The protein concentration was determined by monitoring the change in the solution absorbance at 280 nm using a spectrophotometer compared to protein standards. […] Thereafter, the membranes were washed, incubated in appropriate secondary antibody and then developed using standard enhanced chemi-luminescence (ECL) reagents.
Next, the effect of A464 (SEQ ID No. 20) on MAPK activation was measured by assaying the phosphorylation of p38 and JNK by Western blot. […] As before the protein concentration in the samples was determined by Bradford assay and the accuracy of the loading was confirmed by re-probing the blot for β-actin. […]

KYSFKLILAEYRRRRRRRRR [Peptide A464]
effect on LPS-induced phosphorylation of JNK: completely inhibited phosphorylation of JNK at all times of the LPS stimulation
